In patent US20240041042A1, “1-(PYRIDYL)-5-AZINYLPYRAZOLE DERIVATIVES, AND THEIR USE FOR CONTROL OF UNDESIRED PLANT GROWTH” (Bayer Aktiengesellschaft, priority 2020, published 2024):

Legend:
Type in all cases: in vivo
[1] = tested on: Alopecurus myosuroides (ALOMY); test: Post-emergence herbicidal action against ALOMY; settings: visual rating about 3 weeks after treatment vs untreated controls (100% = plants have died, 0% = like control plants)
Outline: (§1)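 Doses of 320 g/ha or lower, suffixes a, b and c marking different dosages, were applied post-emergence at the one-leaf stage in 600 l/ha water with 0.5% additive. Damage was assessed visually after about 3 weeks in the greenhouse.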

[2] = tested on: Pharbitis purpurea (PHBPU); test: Post-emergence herbicidal action against PHBPU
Outline: as §1

[3] = tested on: Alopecurus myosuroides (ALOMY); test: Pre-emergence herbicidal action against ALOMY; settings: scored visually after about 3 weeks, 100% = plants have died
Outline: (§2)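 Application rates ran to 320 g/ha or lower, with several dosages tested on the same weeds. The compound, as wettable powder or emulsion concentrate, is sprayed pre-emergence onto soil over sown seeds; greenhouse growth follows, and effect is rated visually after roughly 3 weeks.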

Avena fatua (AVEFA) [4] = test: Post-emergence herbicidal action against AVEFA; settings: visual rating about 3 weeks after treatment
Outline: as §1

[5] = tested on: Amaranthus retroflexus (AMARE); test: Pre-emergence herbicidal action against AMARE; settings: visual scoring after about 3 weeks vs untreated controls
Outline: as §2

[6] = tested on: Matricaria inodora (MATIN); test: Pre-emergence herbicidal action against MATIN
Outline: as §2

[7] = tested on: Echinochloa crus-galli (ECHCG); test: Post-emergence herbicidal action against ECHCG
Outline: as §1

Avena fatua (AVEFA) [8] = test: Pre-emergence herbicidal action against AVEFA; settings: visual scoring after about 3 weeks vs untreated controls
Outline: as §2

Setaria viridis (SETVI) = test: Post-emergence herbicidal action against SETVI
Outline: as §1

[9] = tested on: Polygonum convolvulus (POLCO); test: Pre-emergence herbicidal action against POLCO
Outline: as §2

Compound	Post-emergence action against ALOMY in % ([1]; 80 g/ha) [%]	Post-emergence action against ALOMY in % ([1]; 320 g/ha) [%]	Post-emergence action against PHBPU in % ([2]; dosage 80 g/ha) [%]	Post-emergence action against PHBPU in % ([2]; dosage 320 g/ha) [%]	Pre-emergence action against ALOMY ([3]; 80 g/ha) [%]	Pre-emergence action against ALOMY ([3]; 320 g/ha) [%]	Post-emergence action against AVEFA in % (Avena fatua (AVEFA) [4]; 320 g/ha) [%]	Pre-emergence action against AMARE in % ([5]; 80 g/ha) [%]	Pre-emergence action against AMARE in % ([5]; 320 g/ha) [%]	Pre-emergence action against MATIN in % ([6]; dosage 80 g/ha) [%]	Pre-emergence action against MATIN in % ([6]; dosage 320 g/ha) [%]	Post-emergence action against ECHCG in % ([7]; dosage 80 g/ha) [%]	Post-emergence action against ECHCG in % ([7]; dosage 320 g/ha) [%]	Pre-emergence action against AVEFA in % (Avena fatua (AVEFA) [8]; 80 g/ha) [%]	Pre-emergence action against AVEFA in % (Avena fatua (AVEFA) [8]; 320 g/ha) [%]	Post-emergence action against SETVI in % (Setaria viridis (SETVI); dosage 80 g/ha) [%]	Post-emergence action against SETVI in % (Setaria viridis (SETVI); dosage 320 g/ha) [%]	Pre-emergence action against POLCO in % ([9]; dosage 80 g/ha) [%]	Pre-emergence action against POLCO in % ([9]; dosage 320 g/ha) [%]	Post-emergence action against AVEFA in % (Avena fatua (AVEFA) [4]; 80 g/ha) [%]
CCOC(=O)COc1nn(-c2nc(F)ccc2F)c(-c2cncc(F)c2)c1C1CC1 [Example I-149]	80	90	80	80	90	100	80	90	100	90	90	80	80	80	90	80	80	80	90	–
COC(=O)C(C)COC(=O)[C@@H](C)Oc1nn(-c2ccccn2)c(-c2cncc(F)c2)c1Br (some centres unmarked) [Example I-188]	80	90	90	90	90	100	80	100	100	90	90	80	90	80	90	80	80	90	90	80
C[C@@H](Oc1nn(-c2ncccc2F)c(-c2ccc(F)nc2)c1C1CC1)C(=O)O [Example I-342]	100	100	80	90	100	100	100	100	100	100	100	90	90	90	100	90	90	90	100	90
COC(=O)CCOC(=O)[C@@H](C)Oc1nn(-c2ccccn2)c(-c2cncc(F)c2)c1Cl [Example I-196]	80	90	90	90	–	90	90	100	100	90	90	80	80	80	90	80	80	90	90	80
COC(=O)[C@@H](C)COC(=O)COc1nn(-c2ccccn2)c(-c2cncc(F)c2)c1Br [Example I-194]	90	90	90	90	80	100	90	100	100	90	90	80	80	80	90	90	90	80	100	–
COC(=O)[C@@H](C)Oc1nn(-c2nc(F)ccc2F)c(-c2cncc(F)c2)c1Br [Example I-191]	80	90	90	100	80	90	90	90	100	90	90	80	80	–	100	80	80	80	90	80
CCOC(=O)[C@@H](C)Oc1nn(-c2ccccn2)c(-c2cncc(F)c2)c1Cl [Example I-184]	80	90	90	90	90	100	90	100	100	90	90	90	90	80	90	80	90	90	90	80
O=C(O)COc1nn(-c2nc(F)ccc2F)c(-c2cncc(F)c2)c1C1CC1 [Example I-148]	80	90	80	90	100	100	80	100	100	90	90	80	80	80	90	80	80	80	90	–
COC(=O)C(C)NC(=O)[C@@H](C)Oc1nn(-c2ccccn2)c(-c2cncc(F)c2)c1Cl (some centres unmarked) [Example I-199]	–	90	–	80	90	90	80	100	100	90	100	90	90	80	90	80	90	80	90	–
CCOC(=O)COc1nn(-c2ccccn2)c(-c2ccc(F)nc2)c1Br [Example I-02]	80	100	90	100	100	90	80	100	100	–	100	90	90	90	100	80	80	80	80	–
COC(=O)COc1nn(-c2ncccc2F)c(-c2cncc(F)c2)c1C1CC1 [Example I-167]	90	90	90	90	90	100	90	100	100	90	90	80	80	90	90	–	80	90	90	80
